Patent US20030180735A1, “Screening method” (priority 1999, published 2003)
Entries after “also recorded” stand apart in the source; their conditions may differ.

How the values were obtained:
Assay type in all cases: cell-based
[1] = test system: primary human neutrophils; assay: Neutrophil survival/viability by MTT assay
Protocol: primary human neutrophils are isolated and purified from peripheral blood of normal healthy individuals. Neutrophils are resuspended in serum containing culture medium together with various amounts of GM-CSF at a density of 2×10^6/ml, with 100 μl plated into a 96 well plate and cultured for 18 h at 37° C. After this time 10 μl of MTT (5 mg/ml) is added to the cultures and incubated for a further 4 h at 37° C. before solubilisation of the purple coloured formazan with acidic isopropanol. Optical densities are read at 570 nm using a plate reader.
A time course of GM-CSF additions was carried out to neutrophils in order to determine up to what stage GM-CSF can induce survival in neutrophils. primary human neutrophils are isolated and purified from peripheral blood of normal healthy individuals. Neutrophils are resuspended in serum containing culture medium at a concentration of 2×10^6/ml, with 100 μl/well plated into a 96 well plate and culture at 37° C. commenced. At the indicated time points GM-CSF (50U/ml) was added to the neutrophils and culture continued until 20 h post initiation of culture. After this time, 10 μl of MTT (5 mg/ml) was added to the cultures and incubated for a further 4 h at 37° C. before solubilisation of the purple coloured formazan with acidic isopropanol. Optical densities were read at 570 nm using a plate reader. […] However, if administration of the cytokine is delayed for 20 h post isolation, the protective effect is zero in 24 h cultures.
We performed timed additions of anti-GM-CSF antibody to neutrophils in order to determine how immediate the anti-apoptotic effects induced by GM-CSF occur. primary human neutrophils are isolated and purified from peripheral blood of normal healthy individuals. […] Optical densities are read at 570 nm using a plate reader. […]
In our system, cells are cultured in 96 well plates in 100 μl of culture medium and are treated in ways known to induce apoptosis. […] At the end of the incubation period the converted dye is solubilised with acidic-isopropanol (0.04N HCL. Absorbance of converted dye is measured at a wavelength of 570 nm.

HeLa cells = details: agent plus cisplatin 10 μg/ml, overnight, crystal violet
Protocol: In our system, cells are cultured in 96 well plates in 100 μl of culture medium and are treated in ways known to induce apoptosis. Following an indicated period of time, 10 μl MTT stock solution (5 mg/mi) is added to each culture being assayed and incubated at 37° C. for 4 h. At the end of the incubation period the converted dye is solubilised with acidic-isopropanol (0.04N HCL. Absorbance of converted dye is measured at a wavelength of 570 nm.
The following example describes a method to analyse viability of adherent cells, such as HeLa, using chemical stain Crystal Violet. Adherent cells are cultured in the presence of known agents to induce/ modulate the apoptotic process. After a suitable period of time, supernatants are removed by inverting and flicking the plate. Wells are washed twice with PBS and remaining adherent cells are fixed with 100% EtOH and air-dried. To each well is added 100 μl of 1% aqueous Crystal Violet Solution (Sigma). Plates are then incubated at room temperature (RT) for 5 min before washing in tap water. Wells are solubilised in 33% acetic acid and optical density is measured at 570 nm using a plate reader.
HeLa cells are plated in full culture medium at a concentration of 2×10^4 cells/well of 96 well plate. […] Cells are cultured overnight at 37° C. before analysing for apoptosis using either MTT or crystal violet.
HeLa cells are plated in full culture medium at a concentration of 2×10^4 cells/well of 96 well plate. […] Cells are cultured overnight at 37° C. before analysing for apoptosis using crystal violet.
HeLa cells are plated into 96 well plate at a concentration of 2×10^4/well and allowed to adhere for 4 hours Culture medium is then replaced with fresh medium containing the indicated concentrations of TNFα together with 5 μg/ml cycloheximide. Cultures are maintained for a further 18 hours, before measuring apoptosis with crystal violet and reading @570 nm in a plate reader.
Cells are cultured for a further 18 h before staining the remaining adherent cells with crystal violet and measuring absorbance at 570 nm.

[2] = test system: primary human neutrophils; assay: Neutrophil gene expression, Incyte LifeGrid microarray
Protocol: Primary human neutrophils are isolated and purified from peripheral blood of normal healthy individuals. Neutrophils are resuspended in serum containing culture medium together with GM-CSF (50U) at a concentration of 2×10^6/ml, and cultured for 0 h (control), 2 h, 4 h and 6 h at 37° C. After these times, total cellular RNA is extracted and this used as the starting material for analysis of gene expression changes.
Primary human neutrophils are isolated and purified from peripheral blood of normal healthy individuals. Neutrophils are resuspended in serum containing culture medium together with GM-CSF (50U) at a concentration of 2×10^6/ml, and cultured for 0 h (control), 2 h, 4 h and 6 h at 37° C. After these times, total cellular RNA is extracted and this used as the starting material for analysis of gene expression changes using the Incyte “LifeGrid” microarray. Following cluster analysis, a cluster of genes are identified that contained several genes involved in neutrophil survival and whose transcription is up—regulated upon GM-CSF treatment. This cluster, which included BcI2-A1 (a ‘known’ antiapoptotic neutrophil BCL2 family member) is termed the ‘survival’ cluster (See FIG. 14). Among these genes, one group that could be clearly identified are those genes whose protein products are involved in protecting the cell against an increased oxidative environment (FIG. 14). […] Since all these gene products are attenuators of the oxidative cellular response it is indicative that GM-CSF protects the cell by reducing the harmful effects of reactive oxygen species. The corollary therefore is that spontaneous apoptosis must be due to an uncontrolled oxidative environment within the cell. Furthermore, this reaffirms that the neutrophils response to reactive oxidative species is […] of the glutathione system.
Methodology is as described by manufacturer, for Human LifeGrid™ arrays. Essentially, total cellular RNA (1 μg to 20 μg) or polyA+ mRNA (100 ng to 5 μg) is incubated with an oligo (dT) primer. Primed RNA is reverse transcribed to first stand cDNA in a reaction containing M-MLV reverse transcriptase (RT; alternatively Superscript II is used (Life Sciences)), RT buffer, dNTPs and [α-^33P] dCTP (2000-4000 Ci/mmol) at 42° C. for 1 to 5 h.
Methodology is as described by manufacturer, for Human LifeGrid™ arrays.

[3] = GM-CSF (50U), vs control levels

In the case of `CCCCS(=N)(=O)CCC(N)C(=O)O` (stereo not shown) [BSO, buthionine sulphoximine], the “effect on GM-CSF mediated survival” value ([1]; BSO 1 or 4 mM, GM-CSF 5 u/ml, 18 h) is reported as “did not impact on GM-CSF to mediate survival” and the “HeLa cell sensitivity to cisplatin” value (HeLa cells) is reported as “increase the sensitivity; also recorded: dramatically sensitises HeLa cell towards cisplatin”.
In the case of `CC(=O)N[C@@H](CS)C(=O)O` [NAC], the “HeLa cell sensitivity to cisplatin” value (HeLa cells) is reported as “decreased; also recorded: desensitised towards cisplatin”.
With “GM-CSF: well-characterised neutrophil growth/survival factor (cytokine)” the expression of catalase [2, 3] was “increased expression”, the expression of ferritin [2, 3] was “increased expression” and the “expression of mitochondrial superoxide dismutase” value [2, 3] was “increased expression”. For the same compound, the “transcription of fructose 1,6 bisphosphatase” value ([2]; GM-CSF, 6 hour period) was “upregulates”, the “transcription of phosphofructokinase 1” value ([2]; GM-CSF, 6 hour period) was “down regulated” and the “relation of survival to GM-CSF concentration (MTT)” value ([1]; 18 h culture) was “direct correlation between survival and concentrations of GM-CSF”. The “protective effect when GM-CSF addition is delayed 20 h post isolation” value ([1]; GM-CSF 50U/ml, 24 h cultures) was “zero and not sufficient to mediate survival”.
